Experiments:
Experiment in all cases: KinomeScan kinase profiling
Type in all cases: binding
BRSK2 = target: T1, BRSK2 (Homo sapiens, UniProt Q8IWQ3)
T1 construct: purchased Ambit Biosciences Corp (KinomeScan); host or cells: E. coli host derived from the BL21 strain, T7 phage
How it was run: (§1)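 Kinases were expressed as T7 phage fusions in a BL21-derived E. coli host and the cleared lysates were used. Ligand beads were blocked with biotin and buffer (1% BSA, 0.05% Tween 20, 1 mM DTT). Compounds came from 40× DMSO stocks, and phage in the eluates was titred by qPCR.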

CAMK1G = target: T2, CAMK1G (Homo sapiens, UniProt Q96NX5)
T2 construct: purchased Ambit Biosciences Corp (KinomeScan); host or cells: E. coli host derived from the BL21 strain, T7 phage
How it was run: as §1

CAMKK2 = target: T3, CAMKK2 (Homo sapiens, UniProt Q96RR4)
T3 construct: host or cells: T7 phage in E. coli (BL21-derived)
How it was run: as §1

CDK7 = target: T4, CDK7 (Homo sapiens, UniProt P50613)
T4 construct: host or cells: T7 phage in E. coli (BL21-derived)
How it was run: as §1

CSF1R = target: T5, CSF1R (Homo sapiens, UniProt P07333)
T5 construct: host or cells: T7 phage in E. coli (BL21-derived)
How it was run: as §1

DDR2 = target: T6, DDR2 (Homo sapiens, UniProt Q16832)
T6 construct: purchased Ambit Biosciences Corp (KinomeScan); host or cells: T7 phage in E. coli host derived from BL21
How it was run: as §1

EGFR (L858R) = target: T7, EGFR (L858R) (Homo sapiens, UniProt P00533, L858R)
T7 construct: host or cells: E. coli host derived from BL21, T7 phage lysate
How it was run: as §1

FGFR4 = target: T8, FGFR4 (Homo sapiens, UniProt P22455)
T8 construct: host or cells: E. coli host derived from BL21, infected with T7 phage
How it was run: as §1

FGR = target: T9, FGR (Homo sapiens, UniProt P09769)
T9 construct: host or cells: E. coli host derived from BL21, infected with T7 phage
How it was run: as §1

FLT1 = target: T10, FLT1 (Homo sapiens, UniProt P17948)
T10 construct: host or cells: E. coli host derived from BL21, infected with T7 phage
How it was run: as §1

JNK2 = target: T11, JNK2 (Homo sapiens, UniProt P45984)
T11 construct: host or cells: T7 phage in E. coli host derived from BL21
How it was run: as §1

JNK3 = target: T12, JNK3 (Homo sapiens, UniProt P53779)
T12 construct: host or cells: T7 phage in E. coli host derived from BL21
How it was run: as §1

LCK = target: T13, LCK (Homo sapiens, UniProt P06239)
T13 construct: host or cells: T7 phage in E. coli host derived from BL21
How it was run: as §1

LIMK1 = target: T14, LIMK1 (Homo sapiens, UniProt P53667)
T14 construct: host or cells: T7 phage in E. coli host derived from BL21
How it was run: as §1

LTK = target: T15, LTK (Homo sapiens, UniProt P29376)
T15 construct: host or cells: E. coli derived from BL21, infected with T7 phage
How it was run: as §1

MEK2 = target: T16, MEK2 (Homo sapiens, UniProt P36507)
T16 construct: host or cells: E. coli derived from BL21, infected with T7 phage
How it was run: as §1

NEK5 = target: T17, NEK5 (Homo sapiens, UniProt Q6P3R8)
T17 construct: host or cells: T7 phage in E. coli host derived from BL21
How it was run: as §1

NEK6 = target: T18, NEK6 (Homo sapiens, UniProt Q9HC98)
T18 construct: host or cells: T7 phage in E. coli host derived from BL21
How it was run: as §1

PAK1 = target: T19, PAK1 (Homo sapiens, UniProt Q13153)
T19 construct: host or cells: E. coli host derived from the BL21 strain, infected with T7 phage
How it was run: as §1

PCTK3 = target: T20, PCTK3 (Homo sapiens, UniProt Q07002)
T20 construct: host or cells: E. coli host derived from the BL21 strain, infected with T7 phage
How it was run: as §1

PLK1 = target: T21, PLK1 (Homo sapiens, UniProt P53350)
T21 construct: purchased Ambit Biosciences Corp (KinomeScan); host or cells: E. coli host derived from BL21, infected with T7 phage
How it was run: as §1

PRKCQ = target: T22, PRKCQ (Homo sapiens, UniProt Q04759)
T22 construct: purchased Ambit Biosciences Corp (KinomeScan); host or cells: E. coli host derived from BL21, infected with T7 phage
How it was run: as §1

TAK1 = target: T23, TAK1 (Homo sapiens, UniProt O43318)
T23 construct: host or cells: E. coli host derived from the BL21 strain, T7 phage lysate
How it was run: as §1

T12 sequence (P53779 whole entry): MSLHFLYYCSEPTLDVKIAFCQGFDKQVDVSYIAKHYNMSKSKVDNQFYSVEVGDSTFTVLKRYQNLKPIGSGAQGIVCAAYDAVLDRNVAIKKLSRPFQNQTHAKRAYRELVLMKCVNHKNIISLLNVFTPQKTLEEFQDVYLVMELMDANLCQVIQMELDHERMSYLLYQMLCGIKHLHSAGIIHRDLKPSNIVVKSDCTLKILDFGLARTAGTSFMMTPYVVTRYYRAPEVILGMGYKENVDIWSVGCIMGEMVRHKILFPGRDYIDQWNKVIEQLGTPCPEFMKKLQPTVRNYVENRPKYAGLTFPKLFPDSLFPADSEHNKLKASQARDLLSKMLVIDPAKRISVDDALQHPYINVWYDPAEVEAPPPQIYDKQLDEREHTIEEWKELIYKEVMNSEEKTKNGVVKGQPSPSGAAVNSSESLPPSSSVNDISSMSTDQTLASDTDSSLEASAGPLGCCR
T8 sequence (P22455 22-802): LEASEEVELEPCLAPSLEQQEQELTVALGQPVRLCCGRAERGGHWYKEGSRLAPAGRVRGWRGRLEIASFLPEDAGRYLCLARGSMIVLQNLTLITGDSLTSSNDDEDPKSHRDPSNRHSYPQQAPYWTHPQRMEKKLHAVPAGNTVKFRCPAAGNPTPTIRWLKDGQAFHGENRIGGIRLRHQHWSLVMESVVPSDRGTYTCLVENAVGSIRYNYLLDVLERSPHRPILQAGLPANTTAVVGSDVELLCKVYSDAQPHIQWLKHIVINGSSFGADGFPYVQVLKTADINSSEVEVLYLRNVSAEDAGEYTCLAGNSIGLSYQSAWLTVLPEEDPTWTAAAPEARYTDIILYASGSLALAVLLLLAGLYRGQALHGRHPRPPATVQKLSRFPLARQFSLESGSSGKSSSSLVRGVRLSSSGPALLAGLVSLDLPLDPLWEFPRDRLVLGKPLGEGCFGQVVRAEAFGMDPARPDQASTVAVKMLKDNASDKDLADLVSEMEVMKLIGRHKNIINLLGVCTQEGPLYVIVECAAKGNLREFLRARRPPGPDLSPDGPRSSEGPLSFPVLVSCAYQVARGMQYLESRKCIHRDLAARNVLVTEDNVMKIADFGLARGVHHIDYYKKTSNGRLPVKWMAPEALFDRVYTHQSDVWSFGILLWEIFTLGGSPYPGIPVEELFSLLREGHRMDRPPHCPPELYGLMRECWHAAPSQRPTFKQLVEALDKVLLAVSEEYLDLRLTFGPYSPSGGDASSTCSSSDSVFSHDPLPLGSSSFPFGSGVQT
T23 sequence (O43318 whole entry): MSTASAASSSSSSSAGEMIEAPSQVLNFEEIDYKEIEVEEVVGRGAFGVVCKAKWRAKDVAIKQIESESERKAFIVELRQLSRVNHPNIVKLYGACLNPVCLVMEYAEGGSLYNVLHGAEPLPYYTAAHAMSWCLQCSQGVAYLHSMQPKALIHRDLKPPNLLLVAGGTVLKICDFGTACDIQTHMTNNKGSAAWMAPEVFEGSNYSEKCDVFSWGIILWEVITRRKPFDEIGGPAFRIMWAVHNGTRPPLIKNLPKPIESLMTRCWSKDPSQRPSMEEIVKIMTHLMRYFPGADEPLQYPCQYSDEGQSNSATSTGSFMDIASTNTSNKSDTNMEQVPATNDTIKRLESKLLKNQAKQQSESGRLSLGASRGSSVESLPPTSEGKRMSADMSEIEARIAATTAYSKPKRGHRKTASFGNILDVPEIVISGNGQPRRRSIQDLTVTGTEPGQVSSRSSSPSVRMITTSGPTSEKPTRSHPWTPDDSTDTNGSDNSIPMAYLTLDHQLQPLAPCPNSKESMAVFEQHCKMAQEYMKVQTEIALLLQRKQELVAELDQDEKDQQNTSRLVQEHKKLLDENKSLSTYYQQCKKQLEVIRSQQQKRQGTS
T11 sequence (P45984 whole entry): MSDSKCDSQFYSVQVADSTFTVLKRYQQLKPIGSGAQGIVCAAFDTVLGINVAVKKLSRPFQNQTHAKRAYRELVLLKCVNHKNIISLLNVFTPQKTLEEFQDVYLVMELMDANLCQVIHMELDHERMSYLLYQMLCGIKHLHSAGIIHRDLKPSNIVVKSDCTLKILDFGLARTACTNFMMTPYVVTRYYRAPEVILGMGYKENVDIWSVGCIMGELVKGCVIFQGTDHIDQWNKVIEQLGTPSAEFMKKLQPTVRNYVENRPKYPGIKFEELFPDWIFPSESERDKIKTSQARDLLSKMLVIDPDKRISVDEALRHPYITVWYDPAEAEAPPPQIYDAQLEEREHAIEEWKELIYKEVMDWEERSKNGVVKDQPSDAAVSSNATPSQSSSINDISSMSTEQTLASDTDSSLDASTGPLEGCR
T14 sequence (P53667 whole entry): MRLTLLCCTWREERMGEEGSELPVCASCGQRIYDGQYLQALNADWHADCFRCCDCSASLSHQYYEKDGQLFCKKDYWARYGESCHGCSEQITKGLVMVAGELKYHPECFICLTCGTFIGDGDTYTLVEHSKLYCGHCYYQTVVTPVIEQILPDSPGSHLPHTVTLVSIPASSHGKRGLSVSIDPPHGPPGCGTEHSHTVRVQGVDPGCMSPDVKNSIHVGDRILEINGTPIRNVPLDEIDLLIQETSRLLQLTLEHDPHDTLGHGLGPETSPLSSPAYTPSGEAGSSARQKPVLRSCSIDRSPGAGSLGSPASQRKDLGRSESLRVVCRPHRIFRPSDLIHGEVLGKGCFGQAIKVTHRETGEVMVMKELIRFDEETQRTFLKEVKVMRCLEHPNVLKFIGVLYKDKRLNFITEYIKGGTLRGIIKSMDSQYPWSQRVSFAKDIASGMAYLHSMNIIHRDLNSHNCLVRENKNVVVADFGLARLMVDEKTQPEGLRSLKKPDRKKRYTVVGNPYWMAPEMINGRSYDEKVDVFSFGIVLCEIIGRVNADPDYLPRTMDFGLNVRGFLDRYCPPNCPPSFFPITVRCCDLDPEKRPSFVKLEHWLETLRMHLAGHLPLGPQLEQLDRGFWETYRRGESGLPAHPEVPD
T20 sequence (Q07002 whole entry): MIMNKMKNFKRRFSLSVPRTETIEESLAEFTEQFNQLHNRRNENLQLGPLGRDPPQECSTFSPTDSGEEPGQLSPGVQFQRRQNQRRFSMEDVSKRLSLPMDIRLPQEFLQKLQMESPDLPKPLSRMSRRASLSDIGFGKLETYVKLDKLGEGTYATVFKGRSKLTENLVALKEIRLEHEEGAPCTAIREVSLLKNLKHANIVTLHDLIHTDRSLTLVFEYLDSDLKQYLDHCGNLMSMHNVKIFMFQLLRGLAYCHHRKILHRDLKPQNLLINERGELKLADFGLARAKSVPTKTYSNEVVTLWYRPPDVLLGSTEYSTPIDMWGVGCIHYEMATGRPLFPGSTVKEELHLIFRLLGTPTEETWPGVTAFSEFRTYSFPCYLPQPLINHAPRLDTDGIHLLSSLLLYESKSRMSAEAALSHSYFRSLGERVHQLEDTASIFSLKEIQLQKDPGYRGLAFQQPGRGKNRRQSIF
T1 sequence (Q8IWQ3 whole entry): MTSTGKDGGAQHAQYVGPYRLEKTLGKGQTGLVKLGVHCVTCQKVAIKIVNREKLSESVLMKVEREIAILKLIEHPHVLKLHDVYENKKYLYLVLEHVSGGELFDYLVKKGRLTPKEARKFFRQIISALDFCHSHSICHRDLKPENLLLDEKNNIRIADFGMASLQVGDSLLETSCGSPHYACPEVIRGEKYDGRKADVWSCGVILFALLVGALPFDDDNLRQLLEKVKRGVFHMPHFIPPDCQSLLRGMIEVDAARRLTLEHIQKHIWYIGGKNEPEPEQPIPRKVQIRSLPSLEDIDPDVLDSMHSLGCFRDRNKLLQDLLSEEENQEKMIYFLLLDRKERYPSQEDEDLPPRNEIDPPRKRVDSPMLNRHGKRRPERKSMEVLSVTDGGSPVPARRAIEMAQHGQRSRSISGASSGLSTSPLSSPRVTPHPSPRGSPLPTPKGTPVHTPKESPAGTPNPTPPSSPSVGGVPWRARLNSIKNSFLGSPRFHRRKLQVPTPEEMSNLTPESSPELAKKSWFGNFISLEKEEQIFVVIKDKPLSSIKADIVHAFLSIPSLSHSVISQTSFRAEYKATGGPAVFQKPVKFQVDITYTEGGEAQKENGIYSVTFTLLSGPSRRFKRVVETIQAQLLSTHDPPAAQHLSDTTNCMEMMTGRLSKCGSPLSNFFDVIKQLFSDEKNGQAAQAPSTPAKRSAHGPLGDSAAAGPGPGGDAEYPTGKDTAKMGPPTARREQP
T4 sequence (P50613 whole entry): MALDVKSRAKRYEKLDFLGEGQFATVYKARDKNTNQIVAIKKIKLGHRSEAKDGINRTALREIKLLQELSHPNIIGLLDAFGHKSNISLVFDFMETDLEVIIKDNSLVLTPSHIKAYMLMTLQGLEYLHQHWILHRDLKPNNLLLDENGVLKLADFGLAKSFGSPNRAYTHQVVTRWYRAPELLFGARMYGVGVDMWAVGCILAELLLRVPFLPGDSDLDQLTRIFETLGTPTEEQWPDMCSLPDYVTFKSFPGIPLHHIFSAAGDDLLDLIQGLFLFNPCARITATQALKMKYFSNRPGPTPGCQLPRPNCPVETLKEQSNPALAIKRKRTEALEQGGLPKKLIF
T16 sequence (P36507 whole entry): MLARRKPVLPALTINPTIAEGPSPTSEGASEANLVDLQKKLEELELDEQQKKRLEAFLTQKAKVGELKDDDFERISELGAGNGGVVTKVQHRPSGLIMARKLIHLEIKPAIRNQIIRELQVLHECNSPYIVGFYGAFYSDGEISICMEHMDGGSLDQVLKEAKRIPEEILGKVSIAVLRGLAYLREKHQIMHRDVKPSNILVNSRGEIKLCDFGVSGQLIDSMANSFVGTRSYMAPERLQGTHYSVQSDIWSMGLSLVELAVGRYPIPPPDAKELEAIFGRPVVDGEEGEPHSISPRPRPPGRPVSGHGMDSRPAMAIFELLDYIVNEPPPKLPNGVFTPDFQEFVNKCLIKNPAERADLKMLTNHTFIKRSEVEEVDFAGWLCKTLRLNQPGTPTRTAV

SMILES: C#Cc1cccc(Nc2ncnc3cc(OC)c(OCCCN4CCOCC4)cc23)c1 [NRC-2694, N-(3-ethylnylphenyl)-7-methoxy-6-[3-(4-morpholinyl)propoxy]-4-quinazolinamine]
- % Ctrl @ 10000 nM (BRSK2): 33 % Ctrl
- % Ctrl @ 10000 nM (CAMK1G): 75 % Ctrl
- % Ctrl @ 10000 nM (CAMKK2): 60 % Ctrl
- % Ctrl @ 10000 nM (CDK7): 0.55 % Ctrl
- % Ctrl @ 10000 nM (CSF1R): 50 % Ctrl
- % Ctrl @ 10000 nM (DDR2): 76 % Ctrl
- % Ctrl @ 10000 nM (EGFR (L858R)): 0 % Ctrl
- % Ctrl @ 10000 nM (FGFR4): 69 % Ctrl
- % Ctrl @ 10000 nM (FGR): 19 % Ctrl
- % Ctrl @ 10000 nM (FLT1): 64 % Ctrl
- % Ctrl @ 10000 nM (JNK2): 95 % Ctrl
- % Ctrl @ 10000 nM (JNK3): 77 % Ctrl
- % Ctrl @ 10000 nM (LCK): 1.5 % Ctrl
- % Ctrl @ 10000 nM (LIMK1): 62 % Ctrl
- % Ctrl @ 10000 nM (LTK): 3.8 % Ctrl
- % Ctrl @ 10000 nM (MEK2): 44 % Ctrl
- % Ctrl @ 10000 nM (NEK5): 94 % Ctrl
- % Ctrl @ 10000 nM (NEK6): 94 % Ctrl
- % Ctrl @ 10000 nM (PAK1): 74 % Ctrl
- % Ctrl @ 10000 nM (PCTK3): 82 % Ctrl
- % Ctrl @ 10000 nM (PLK1): 81 % Ctrl
- % Ctrl @ 10000 nM (PRKCQ): 83 % Ctrl
- % Ctrl @ 10000 nM (TAK1): 66 % Ctrl

Source: patent US9050341B2, “Methods of treating drug resistant and other tumors by administering 6,7-dialkoxy quinazoline derivatives” (NATCO PHARMA LIMITED, priority 2009, dated 2015)
